Reference: patent publication US8530680B2, “System and method for controlling growth of microorganisms with brominated furanones” (Syracuse University, priority 2008, dated 2013)

How the values were obtained:
[1] = tested on: extracellular AI-2 activities of E. coli; experiment: AI-2 bioluminescence assay (V. harveyi BB170 reporter, E. coli supernatants); assay type: cell-based; conditions: 60 μg/mL, E. coli culture 8 hours, supernatant on V. harveyi BB170
Description: To explore if brominated furanones have an interaction with quorum-sensing based on AI-2, a bioluminescence assay was conducted. Specifically, to examine whether the novel BFs have any inhibitory effects on universal QS signal AI-2, the bioluminescence of the reporter Vibrio harveyi (“V. harveyi”) strain BB170 was used as an indicator of AI-2 activities.
The E. coli strains RP437 [thr-1(Am) leuB6 his-4 metF159(Am) eda-50 rpsL1356 thi-1 ara-14 mtl-1 xyl-5 tonA31 tsx-78 lacY1 F-] and quorum-sensing mutant BW25113 ΔLuxS [ΔluxS::kan^r lacI^q rrnB3 ΔlacZ4787 hsdR514 Δ(araBAD)567 Δ (rhaBAD)568 rph-1] were routinely grown at 37° C. with shaking at 200 rpm in LB medium containing 10 g/L NaCl, 5 g/L yeast extract and 10 g/L tryptone. […]
The reporter strain V. harveyi BB170 was grown in AB medium at 30° C. for 16 hours. […] The subcultures were incubated at 30° C. and the bioluminescence was measured every hour as an indicator of AI-2 activity using a luminometer (Model 20/20m Turner BioSystems, Inc., Sunnyvale, Calif.). The colony-forming units (CFUs) of V. harveyi strain BB170 were counted after spreading the cell cultures on LM agar plates containing 10 g/L tryptone, 5 g/L yeast extract, 20 g/L NaCl and 15 g/L agar plates and incubating at 30° C. for 24 hours.
It was previously known that the V. harveyi BB170 strain produces luminescence in response to AI-2 but not in response to homoserine lactones (AHLs) as a result of a mutation in the AHL sensor gene. At low cell densities, the basal level of AI-2 will not trigger significant production of luminescence in V. harveyi BB170; however, at high cell densities, the extracellular AI-2 concentration will reach a certain threshold and induce the bioluminescence of V. harveyi. […]

[2] = tested on: Chaetomium globosum wildtype strain (CG); experiment: Fungal growth on MEA plates with furanone; assay type: cell-based; parameters: key to growth on plate, CG: −: No growth was observed; +: normal growth was seen; conditions: for growth on plate, CG: 60 μg/mL, 7 days at 30° C.; for growth inhibition test, inhibitory concentration, CG: tested at 1, 5, 30, 60 μg/mL, 7 days
Description: This Example examines the effect of brominated furanones on the growth of fungi associated with damage to building material. Six fungal strains were the subject of these experiments; Gloeophyllum trabeum (strains GT598 and GT599), Chaetomium globosum (wildtype strain and CG572), and Trametes versicolor (strains TV7B2-59 and TV57MAD277). The species were developed on 2% Malt-Extract Agar (MEA) plates and stored inverted at 4° C. The stocks were refreshed by streaking new plates every two months.
The brominated and non-brominated furanones were added to MAE agar plates at different concentrations. The brominated furanones were dissolved in either ethanol (“EtOH”) or methanol (“MeOH”) as stock solutions, as shown in Table 5. The non-brominated furanones were purchased from Sigma (St. Louis, Mo.). The furanone stocks were stored at 4° C.
MAE agar plates containing the same amounts of ethanol/methanol were also prepared as negative controls to eliminate any solvent effects. The plates were prepared using either 90 mm or 60 mm petri dishes and were stored inverted at 4° C. until use.
Different concentrations of furanones were studied to compare their antifungal activities. The plates were inoculated with the six fungal strains using a platinum loop and were incubated upside down at 30° C. for 7 days to monitor the growth. The initial screening was performed using a single 60 μg/mL furanone concentration.

SMILES	reduction of extracellular AI-2 activity [1] [%]	growth on plate, CG [2]	growth inhibition test, inhibitory concentration, CG [2] [µg/mL]
O=C1OC(=C(Br)Br)C=C1C(Br)Br [BF10, 3-(dibromomethyl)-5-(dibromomethylene)furan-2-one]	31.0±5.1	−	30
CCCCC1=C(Br)/C(=C/Br)OC1=O [BF1, 4-bromo-5Z-(bromomethylene)-3-butylfuran-2-one]		−	30
CC1=C(Br)/C(=C/Br)OC1=O [BF8, 4-bromo-5Z-(bromomethylene)-3-methylfuran-2-one]	72.9±1.0	−	5
CC1=CC(=C(Br)Br)OC1=O [BF9, 5-(dibromomethylene)-3-methylfuran-2-one]	42.2±0.3	−	5
